Data on two compounds can be found in patent US4399283A, “Pharmaceutical salts of 4'-(9-acridinylamino)-methanesulfon-m-anisidide” (Warner Lambert Company, priority 1981, dated 1983).

Data set [1] is classed as physicochemical. The following applies: 10 mg/ml, after storing at 5 °C. From the text:
The salts of th present invention allow one to prepare solutions of m-AMSA without the aid of dimethylacetamide. Depending upon the salt, concentration and temperature,standing may result in certain of the solutions of salts forming gels. However, a salt need only remain in solution for a period long enough for it to be administered to a patient.

A further data set deals with mice. The following applies: literature (Cain et al.); cited from earlier work.

On to `COc1cc(NS(C)(=O)=O)ccc1Nc1c2ccccc2nc2ccccc12` [gluconate, 4'-(9-acridinylamino)methanesulfon-m-anisidide D-gluconate], for which, in data set [1], the “Return of gelled solution to fluid state by warming to room temperature and shaking” value is reported as “this could not be achieved”.

Regarding `COc1cc(NS(C)(=O)=O)ccc1Nc1c2ccccc2nc2ccccc12` [m-AMSA, 4'-(9-acridinylamino)-methanesulfon-m-anisidide], in the data set on mice, the “Activity in treating mammals in studies using mice” value is listed as “high degree of activity”.
